According to US7452908B2, “Amide derivatives” (Banyu Pharmaceutical Co., Ltd., priority 1999, dated 2008):
pKi: −log10 of the molar value.

Experiments:
M1 receptor = molecular target: T1, M1 receptor (Rattus norvegicus, UniProt P08482); assay: Antagonism to M1 receptor in vivo: McNeil-A-343-induced vasopressor reaction in cervical vertebrae-separated rats; settings: iv, McNeil-A-343 (0.3 mg/kg) 5 minutes after test compound
T1 construct: from tissue; host or cells: whole animal, male SD rats (in vivo)
T1 sequence (P08482 1-460): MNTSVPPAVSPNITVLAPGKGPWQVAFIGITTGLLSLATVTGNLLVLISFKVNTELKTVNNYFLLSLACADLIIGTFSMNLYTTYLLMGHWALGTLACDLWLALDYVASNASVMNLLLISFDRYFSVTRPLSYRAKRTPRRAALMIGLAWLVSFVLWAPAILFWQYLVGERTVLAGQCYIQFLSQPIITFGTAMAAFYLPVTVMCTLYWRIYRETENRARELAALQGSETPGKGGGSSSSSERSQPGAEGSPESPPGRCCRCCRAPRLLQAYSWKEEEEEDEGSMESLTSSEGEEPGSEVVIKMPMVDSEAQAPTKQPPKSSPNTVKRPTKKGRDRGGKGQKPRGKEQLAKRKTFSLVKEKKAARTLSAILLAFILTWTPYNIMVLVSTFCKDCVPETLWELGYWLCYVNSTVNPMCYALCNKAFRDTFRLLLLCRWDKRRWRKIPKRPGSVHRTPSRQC
Method: Male SD strain rats (weighing 300-500 g) were anesthetized with intraperitoneal administration of pentobarbital (50 mg/kg). Each rat's airway was cannulated by laryngotomy. Also by femoral incision, femoral artery and vein were isolated each and cannulated, which were used as routes for heart rate counting and chemical administration, respectively. Using a pulmotor for small animals (Type 7025, Ugo Basile Co.), artificial respiration was conducted under the conditions of ventilation rate of 6 ml/kg per breath and respiration rate of 90 breaths/min. The heart rate and blood pressure variations were measured with a heart rate counter (AT-601 G, Nippon Koden Co.) and a tonometer (AP-641G, Nippon Koden Co.), via a pressure transducer (DX-312, Nippon Koden Co.). After the blood pressure was stabilized, the cervical vertebrae was separated with an injection needle pricked from the occipital region. […] Five (5) minutes thereafter, McNeil-A-343 (0.3 mg/kg) was intravenously administered, and whereby induced hypertension variation was recorded. In this experiment one-dose evaluation per one animal was conducted. The inhibitory effect (inhibition ratio) of the test compound on the McNeil-A-343-induced vasopressor reaction was determined by the following equation: […]

[1] = molecular target: T2, M2 receptor in isolated rat right atrium (Rattus norvegicus, UniProt P10980); assay: Antagonism to M2 receptor in isolated rat right atrium (carbachol-induced decrease in heart rate); assay type: cell-based; settings: shift of carbachol dose-response curve
T2 construct: from tissue; host or cells: right atrium of male SD rats
T2 sequence (P10980 1-466): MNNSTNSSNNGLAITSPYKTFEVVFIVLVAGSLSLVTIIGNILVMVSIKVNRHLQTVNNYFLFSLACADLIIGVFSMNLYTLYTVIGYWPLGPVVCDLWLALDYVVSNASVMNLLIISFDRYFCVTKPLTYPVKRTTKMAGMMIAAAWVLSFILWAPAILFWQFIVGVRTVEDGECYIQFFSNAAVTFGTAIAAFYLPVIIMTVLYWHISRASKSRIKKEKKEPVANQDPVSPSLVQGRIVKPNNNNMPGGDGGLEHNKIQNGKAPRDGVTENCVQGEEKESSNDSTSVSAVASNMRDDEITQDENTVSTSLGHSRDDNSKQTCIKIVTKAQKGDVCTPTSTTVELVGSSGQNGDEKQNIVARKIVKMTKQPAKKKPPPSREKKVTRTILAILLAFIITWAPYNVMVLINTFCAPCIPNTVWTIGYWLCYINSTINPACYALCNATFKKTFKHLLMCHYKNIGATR
Method: The test was performed according to a conventional method. Male SD strain rats (weighing 300-500 g) were killed by exsanguination, and from each of them the right atrium was isolated. Each preparation was isometrically suspended in a Magnus tube filled with 20 ml of Krebs-Henseleit solution (gassed with 95% O2-5% CO2 and kept at 32° C.) with an initial tension of 0.5 g. The heart rate was recorded with a heart rate counter. After the preparation was equilibrated for 30 minutes, carbachol (10^−9 to 10^−6 M) was cumulatively administered from a low concentration to three-fold increasing doses and accompanying decrease in heart rate was measured to obtain a dose-responsecurve for the control experiment. Afterthe preparation was washed with fresh solution to restore the heart rate, a test compound was administered thereto. Ten minutes later, carbachol was cumulatively administered again. Responses to carbachol were expressed as percentages based on the heart rate before administration of carbachol as 100%. The antagonistic potency (KB value) of the test compound was determined from the degree of shift of the dose-responsecurve attributable to the treatment with individual test compound of the present invention. The results were as shown in Tables 2-1 and 2-2. • 2) Test for Antagonism to the Airway M3 Receptor in Isolated Rat Trachea

[2] = molecular target: T3, human m4 muscarinic acetylcholine receptor expressed in CHO cells (Homo sapiens, UniProt P08173); assay: Inhibition of [3H]-N-methylscopolamine binding to muscarinic m4 receptor; settings: 0.2 nM [3H]-N-methylscopolamine
T3 construct: purchased Receptor Biology, Inc; host or cells: CHO cells
T3 sequence (P08173 1-479): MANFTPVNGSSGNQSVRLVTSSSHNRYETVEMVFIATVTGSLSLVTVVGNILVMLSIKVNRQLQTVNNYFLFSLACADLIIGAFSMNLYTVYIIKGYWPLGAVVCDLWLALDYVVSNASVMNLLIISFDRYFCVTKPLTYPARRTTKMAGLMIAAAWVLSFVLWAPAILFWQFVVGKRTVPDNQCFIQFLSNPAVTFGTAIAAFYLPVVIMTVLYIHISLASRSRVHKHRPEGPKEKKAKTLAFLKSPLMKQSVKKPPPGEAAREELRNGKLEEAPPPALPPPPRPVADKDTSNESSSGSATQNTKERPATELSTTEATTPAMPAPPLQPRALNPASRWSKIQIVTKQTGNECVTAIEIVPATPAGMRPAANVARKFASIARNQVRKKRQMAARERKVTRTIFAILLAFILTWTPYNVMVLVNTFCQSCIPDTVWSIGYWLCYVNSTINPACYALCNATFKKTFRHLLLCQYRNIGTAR
Method: These tests were performed according to a modification of the method of Hargreaves, et al. (Br. J. Pharmacol. 107: 494-501, 1992). Namely, muscarinic acetylcholine receptors of human m1, m2, m3, m4 and m5 expressed in CHO cells (Receptor Biology, Inc.) were incubated with 0.2 nM [^3H]-N-methylscopolamine (82Ci/mmol, New England Nuclear, Inc.) and a test compound to be tested in 0.5 ml of 50 mM Tris-HCl, 10 mM MgCl2, 1 mM EDTA solution (pH 7.4) for 120 minutes at room temperature (about 20-25° C.), followed by suction filtration over a glass filter (UniFilter plate-GF/C; Packard). Then the filter was washed four times with 1 ml of ice-cold Tris-HCl buffer and dried at 50° C. for an hour. After adding a scintillator (Microscinti 0; Packard), the radioactivity of [^3H]-N-methylscopolamine binding to the filter was counted with a microplate scintillation counter (TopCount™; Packard). Non-specific receptor binding of [^3H]-N-methylscopolamine was measured by adding 1 μM N-methylscopolamine.

| ED50 (M1 receptor) | pKi [2] | SMILES | Kb [1] |
| --- | --- | --- | --- |
| > 3 mg/kg | 7.74 | O=C(CCNC(=O)CNC(=O)CC(c1ccccc1)(c1ccccc1)c1ccccc1)NC[C@H]1CCCN(CC2CCCCC2)C1 [Example 12, N-{2-(3-{((3R)-1-cyclohexylmethyl-3-piperidyl)methyl}amino-3-oxopropyl)amino-2-oxoethyl}-3,3,3-triphenyloropanamide] | 160 nM |
| > 0.3 mg/kg | 6.85 | CC[N+]1(CC)CCC[C@H](CNC(=O)[C@H]2CCCN2C(=O)[C@@H]2C[C@@H](O)CN2C(=O)CC(c2ccccc2)(c2ccccc2)c2ccccc2)C1.[Cl-] [Example 133, (3R)-1,1-diethyl-3-({({(2R)-1-({(2S,4R)-4-hydroxy-1-(3,3,3-triphenylpropanoyl)-2-pyrrolidinyl}carbonyl)-2-pyrrolidinyl}carbonyl)amino}methyl)piperidinium chloride] | 41 nM |
